Tests used:
Experiment in all cases: relative viability (nuclei count vs DMSO), 5 days (fraction); higher = more cells survive
[1] = compound: CC1CC(=O)N(C2=CN=C(N=C2N1C3CCCC3)NC4=C(C=C(C=C4)C(=O)NC5CCN(CC5)C)OC)C [NPK76-II-72-1] + COc1cc2c(Oc3ccc(NC(=O)C4(C(=O)Nc5ccc(F)cc5)CC4)cc3F)ccnc2cc1OCCCN1CCOCC1 [Foretinib] (partner 0.25 µM)
Summary of the method: (§1)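 The day after seeding in 1536-well plates, lung cancer cell lines were treated by pin tool with a single drug, or with a fixed anchor-drug dose together with five library-drug doses (not always all listed) in √10 steps. After 5 days, a combined fix-and-stain solution (final 0.05% Triton X-100, 1% formaldehyde, 1 ug/ml Hoechst) was added. Nuclei counted on 4× images gave relative viability as treated counts over vehicle counts, reported as the median of duplicate plates.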

BI-2536 + Pemetrexed = compound: CC[C@@H]1C(=O)N(C)c2cnc(Nc3ccc(C(=O)NC4CCN(C)CC4)cc3OC)nc2N1C1CCCC1 [BI-2536] + Nc1nc2[nH]cc(CCc3ccc(C(=O)N[C@@H](CCC(=O)O)C(=O)O)cc3)c2c(=O)[nH]1 [Pemetrexed] (partner 0.2 µM)
Summary of the method: as §1

BI-2536 + OSI-027 = compound: CC[C@@H]1C(=O)N(C)c2cnc(Nc3ccc(C(=O)NC4CCN(C)CC4)cc3OC)nc2N1C1CCCC1 [BI-2536] + COc1cccc2cc(-c3nc([C@H]4CC[C@H](C(=O)O)CC4)n4ncnc(N)c34)[nH]c12 [OSI-027] (partner 0.5 µM)
Summary of the method: as §1

BI-2536 + Lapatinib = compound: CC[C@@H]1C(=O)N(C)c2cnc(Nc3ccc(C(=O)NC4CCN(C)CC4)cc3OC)nc2N1C1CCCC1 [BI-2536] + CS(=O)(=O)CCNCc1ccc(-c2ccc3ncnc(Nc4ccc(OCc5cccc(F)c5)c(Cl)c4)c3c2)o1 [Lapatinib] (partner 2 µM)
Summary of the method: as §1

Row | Cell Line | relative viability ([1]; first compound 0.01 µM) | relative viability ([1]; first compound 0.03162 µM) | relative viability ([1]; first compound 0.1 µM) | relative viability ([1]; first compound 0.3162 µM) | relative viability ([1]; first compound 1 µM) | relative viability (BI-2536 + Pemetrexed; first compound 0.01 µM) | relative viability (BI-2536 + Pemetrexed; first compound 0.03162 µM) | relative viability (BI-2536 + Pemetrexed; first compound 0.1 µM) | relative viability (BI-2536 + Pemetrexed; first compound 0.3162 µM) | relative viability (BI-2536 + Pemetrexed; first compound 1 µM) | relative viability (BI-2536 + OSI-027; first compound 0.01 µM) | relative viability (BI-2536 + OSI-027; first compound 0.03162 µM) | relative viability (BI-2536 + OSI-027; first compound 0.1 µM) | relative viability (BI-2536 + OSI-027; first compound 0.3162 µM) | relative viability (BI-2536 + OSI-027; first compound 1 µM) | relative viability (BI-2536 + Lapatinib; first compound 0.01 µM) | relative viability (BI-2536 + Lapatinib; first compound 0.03162 µM) | relative viability (BI-2536 + Lapatinib; first compound 0.1 µM) | relative viability (BI-2536 + Lapatinib; first compound 0.3162 µM) | relative viability (BI-2536 + Lapatinib; first compound 1 µM)
1 | NCI-H1563 | 0.84 | 0.875 | 0.933 | 0.923 | 0.845 | 0.736 | 0.789 | 0.744 | 0.413 | 0.473 | 0.811 | 0.792 | 0.704 | 0.535 | 0.541 | 0.906 | 0.938 | 0.832 | 0.568 | 0.638
2 | NCI-H1650 | 1.16 | 1.06 | 0.966 | 0.943 | 1.37 | 0.383 | 0.297 | 0.288 | 0.166 | 0.136 | 0.636 | 0.564 | 0.169 | 0.18 | 0.159 | 0.775 | 0.649 | 0.176 | 0.151 | 0.124
3 | NCI-H1651 | 0.811 | 0.826 | 0.825 | 0.74 | 0.953 | 0.613 | 0.583 | 0.511 | 0.139 | 0.0892 | 0.686 | 0.758 | 0.272 | 0.0807 | 0.0995 | 0.754 | 0.8 | 0.118 | 0.0889 | 0.0915
4 | NCI-H1666 | 0.909 | 1.04 | 0.855 | 0.918 | 1.06 | 0.822 | 0.881 | 0.831 | 0.543 | 0.57 | 0.881 | 0.842 | 0.686 | 0.378 | 0.311 | 0.779 | 0.582 | 0.29 | 0.231 | 0.262

Source: the supplement of paper PMC10307832
